33 compounds from patent publication US20250313569A1, “Pharmaceutical Compounds And Compositions As Modulators Of MAS-Related G-Protein Receptor X2” (Enanta Pharmaceuticals, Inc., priority 2024, published 2025) can be followed below.

Structures are written as SMILES.

The experiment concerns the target T1, human MRGPRX2 (Homo sapiens, UniProt Q96LB1).
T1 construct: expressed in transfected cells; host or cells: HEK293
T1 sequence (Q96LB1 1-330): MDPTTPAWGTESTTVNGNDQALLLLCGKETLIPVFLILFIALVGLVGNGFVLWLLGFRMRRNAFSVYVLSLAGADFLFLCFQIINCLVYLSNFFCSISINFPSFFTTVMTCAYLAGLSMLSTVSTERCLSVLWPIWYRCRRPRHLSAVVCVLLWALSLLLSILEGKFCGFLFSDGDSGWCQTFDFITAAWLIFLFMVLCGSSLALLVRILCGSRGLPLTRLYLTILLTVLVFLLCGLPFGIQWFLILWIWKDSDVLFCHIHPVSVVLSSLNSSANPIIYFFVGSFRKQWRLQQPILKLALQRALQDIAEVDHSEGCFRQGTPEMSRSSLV
Description: MRGPRX2 IP-1 Gq HTRF assay in HEK293 cells stably expressing human MRGPRX2, Cortistatin-14 at EC75. The conditions noted are these: 2 hours at 37° C., cellular IP-1. Format: cell-based. The protocol:
HEK293 cells stably expressing human MRGPRX2 were grown in Dulbecco's Modified Eagle Medium (DMEM) supplemented with 10% fetal bovine serum (FBS), 1% Glutamax, and 1 μg/mL of puromycin. Cells were maintained in a 37° C., 5% CO2 humidified incubator.
Cells were plated in a 384-well assay plate at a density of 20,000 cells per well overnight. Compounds were solubilized at 10 mM in DMSO and added as a 10-point curve using an ECHO acoustic liquid handler. On the day of the assay, Cortistatin-14 was diluted in assay buffer (provided by IP-One-Gq-HTRF kit purchased from Cisbio, 62IPAPEJ) and added to the assay plate at a final concentration corresponding to the predetermined EC75. Plates were incubated at 37° C. for 2 hours prior to addition of HTRF detection reagents per the manufacturer's instructions. The plates were read on a Perkin Elmer Envision plate reader. The HTRF ratio and cellular IP-1 levels were calculated. XLfit was used to calculate an EC50 value for each compound using a 4-parameter logistic curve fitting model. EC50 ranges are reported as follows: A<100 nM; B 0.1-1 μM; C>1 μM.
A general note: In TR-FRET formats the signal depends on donor and acceptor labels being close together.
The compound `CN(C)CC(=O)N1C[C@@H](NC(=O)c2cccc(NS(C)(=O)=O)c2)C[C@@H](Nc2cc(C(F)(F)F)nc3ccc(Cl)cc23)C1` [Example 13] showed an EC50 of 100 to 1000 nM.

`CC(=O)N1C[C@@H](NC(=O)c2cccc(F)c2)C[C@@H](Nc2cc(C(F)(F)F)nc3ccc(Cl)cc23)C1` [Example 36] returned an EC50 of less than 100 nM.

`CC(=O)N1C[C@@H](NC(=O)c2cnn(-c3ccccc3)c2)C[C@@H](Nc2cc(C(F)(F)F)nc3ccc(Cl)cc23)C1` [Example 69] had an EC50 of 100 to 1000 nM.

The compound `CC(=O)N1C[C@@H](NC(=O)c2cnn(C(C)C)c2)C[C@@H](Nc2cc(C(F)(F)F)nc3ccc(Cl)cc23)C1` [Example 38] displayed an EC50 of 100 to 1000 nM.

The compound `CC(=O)N1C[C@@H](NC(=O)c2cnn(C3CCCCC3)c2)C[C@@H](Nc2cc(C(F)(F)F)nc3ccc(Cl)cc23)C1` [Example 68] yielded an EC50 of less than 100 nM.

`CC(=O)N1C[C@@H](NC(=O)c2ccccc2F)C[C@@H](Nc2cc(C(F)(F)F)nc3ccc(Cl)cc23)C1` [Example 35] showed an EC50 of 100 to 1000 nM.

The compound `CC(=O)N1C[C@@H](NC(=O)c2cc(F)cc(F)c2)C[C@@H](Nc2cc(C(F)(F)F)nc3ccc(Cl)cc23)C1` [Example 37] returned an EC50 of 100 to 1000 nM.

In turn, `COc1cc(C(=O)N[C@H]2C[C@@H](Nc3cc(C(F)(F)F)nc4ccc(Cl)cc34)CN(C(C)=O)C2)cc2cn(C(F)F)nc12` [Example 56] showed an EC50 of less than 100 nM.

Consider `CC(C)(C)C(=O)N1C[C@@H](NC(=O)c2cccc(NS(C)(=O)=O)c2)C[C@@H](Nc2cc(C(F)(F)F)nc3ccc(Cl)cc23)C1` (racemic) [Example 15], for which the EC50 fell in the range of 100 to 1000 nM.

As to `CS(=O)(=O)Nc1cccc(NC(=O)[C@@H]2COC[C@H](Nc3cc(C(F)(F)F)nc4ccc(Cl)cc34)C2)c1` [Example 53], the EC50 was less than 100 nM.

Consider `CC(=O)N1CC(Nc2cc(C(F)(F)F)nc3ccccc23)C[C@H](NC(=O)c2cccc(NS(C)(=O)=O)c2)C1` (stereo partly drawn) [Example 22], for which the EC50 was 100 to 1000 nM.

Regarding `CS(=O)(=O)Nc1cccc(C(=O)N[C@@H]2CNC[C@H](Nc3ccc(C#N)c(C(F)(F)F)c3)C2)c1` [Example 45], the EC50 was greater than 1000 nM.

As to `CC(=O)N1C[C@@H](NC(=O)c2ccc3[nH]ncc3c2)C[C@@H](Nc2cc(C(F)(F)F)nc3ccc(Cl)cc23)C1` [Example 58], the EC50 was less than 100 nM.

`O=C(N[C@H]1C[C@@H](Nc2cc(C(F)(F)F)nc3ccc(Cl)cc23)CS(=O)(=O)C1)c1ccc(F)cc1` [Example 140]: the EC50 was greater than 1000 nM.

The compound `CC(=O)N1C[C@@H](NC(=O)c2cnn(CC3CC3)c2)C[C@@H](Nc2cc(C(F)(F)F)nc3ccc(Cl)cc23)C1` [Example 61] showed an EC50 of less than 100 nM.

Compound `CC(=O)N1C[C@@H](NC(=O)c2cnn(-c3ccc(F)cc3)c2)C[C@@H](Nc2cc(C(F)(F)F)nc3ccc(Cl)cc23)C1` [Example 70] returned an EC50 of 100 to 1000 nM.

In the case of `CC(=O)N1CC(Nc2cc(C(F)(F)F)nc3ccc(F)cc23)C[C@H](NC(=O)c2cccc(NS(C)(=O)=O)c2)C1` (stereo partly drawn) [Example 21], the EC50 is less than 100 nM.

In turn, `CC(=O)N1C[C@@H](NC(=O)c2cnn(C3CCNCC3)c2C)C[C@@H](Nc2cc(C(F)(F)F)nc3ccc(Cl)cc23)C1` [Example 34] yielded a 50% effective concentration (EC50) greater than 1000 nM.

In turn, `COCC(=O)N1C[C@@H](NC(=O)c2cccc(NS(C)(=O)=O)c2)C[C@@H](Nc2cc(C(F)(F)F)nc3ccc(Cl)cc23)C1` [Example 14] showed an EC50 of less than 100 nM.

`CNCC(=O)N1C[C@@H](NC(=O)c2cccc(NS(C)(=O)=O)c2)C[C@@H](Nc2cc(C(F)(F)F)nc3ccc(Cl)cc23)C1` [Example 12] gave an EC50 of 100 to 1000 nM.

The compound `CN1C[C@@H](NC(=O)c2cccc(NS(C)(=O)=O)c2)C[C@@H](N(C)c2cc(C(F)(F)F)nc3ccccc23)C1` [Example 52] returned an EC50 greater than 1000 nM.

In turn, `CC(=O)N1C[C@@H](NC(=O)c2ccc(OC(F)(F)F)cc2)C[C@@H](Nc2cc(C(F)(F)F)nc3ccc(Cl)cc23)C1` [Example 66] showed an EC50 of 100 to 1000 nM.

Compound `CS(=O)(=O)Nc1cccc(C(=O)N[C@H]2CC(Nc3cc(C(F)(F)F)nc4ccc(Cl)cc34)CN(C(=O)c3cccnc3)C2)c1` (stereo partly drawn) [Example 19] came in with an EC50 of 100 to 1000 nM.

As for `CC(=O)N1C[C@@H](NC(=O)c2ccc(F)cc2F)C[C@@H](Nc2cc(C(F)(F)F)nc3ccc(Cl)cc23)C1` [Example 27], the EC50 lay within 100 to 1000 nM.

`COc1cc(C(=O)N[C@H]2C[C@@H](Nc3cc(C(F)(F)F)nc4ccc(Cl)cc34)CN(C(C)=O)C2)ccc1OC1CC1` [Example 60] displayed an EC50 of 100 to 1000 nM.

Regarding `CC(=O)N1C[C@H](Nc2cc(C(F)(F)F)nc3ccc(Cl)cc23)C[C@H](N(C)C(=O)c2cnn(C)c2)C1` [Example 47], the EC50 was greater than 1000 nM.

As to `CC(=O)N1C[C@@H](NC(=O)c2cnn(CC(C)(C)O)c2)C[C@@H](Nc2cc(C(F)(F)F)nc3ccc(Cl)cc23)C1` [Example 64], the EC50 is less than 100 nM.

For `CC(=O)N1C[C@@H](NC(=O)c2cccc(S(C)(=O)=O)c2)C[C@@H](Nc2cc(C(F)(F)F)nc3ccc(Cl)cc23)C1` [Example 28], the EC50 is less than 100 nM.

`CC(C)(C)OC(=O)N1C[C@@H](NC(=O)c2cccc(NS(C)(=O)=O)c2)C[C@@H](Nc2cc(C(F)(F)F)nc3ccc(Cl)cc23)C1` [Example 6]: the EC50 fell in the range of 100 to 1000 nM.

Turning to `CC(=O)N1C[C@@H](NC(=O)c2ccc(C)nc2)C[C@@H](Nc2cc(C(F)(F)F)nc3ccc(Cl)cc23)C1` [Example 62], the EC50 was in the range of 100 to 1000 nM.

Compound `CC(=O)N1C[C@@H](NC(=O)c2cn(C(F)F)nc2C(F)F)C[C@@H](Nc2cc(C(F)(F)F)nc3ccc(Cl)cc23)C1` [Example 59] had an EC50 of less than 100 nM.

`CC(=O)N1C[C@@H](NC(=O)c2cn(CC(F)(F)F)nn2)C[C@@H](Nc2cc(C(F)(F)F)nc3ccc(Cl)cc23)C1` [Example 33] had an EC50 of 100 to 1000 nM.

For the compound `CN1C[C@@H](NC(=O)c2cccc(NS(C)(=O)=O)c2)C[C@@H](Nc2cc(C(F)(F)F)nc3ccccc23)C1` [Example 51], the EC50 was greater than 1000 nM.

For orientation: EC50 means the concentration giving half of the maximal effect. Low values mean greater potency, high ones weaker potency.
